Data reported in publication PMC12031237, “Toxicity Assessment of (4Z)-Lachnophyllum and (4Z,8Z)-Matricaria Lactones: Implications for Environmental Safety of Bioherbicides” (Toxins, 2025).
Converted amounts (≈) assume the structure as drawn. “And” between values parts separate entries of the source, which are not always exact repeats. Identical values can stand only once. “Also recorded” adds a separate entry of the source. Like-named read-outs stand apart in the source and are kept apart here.

Assays:
[1] = tested on: R. subcapitata; experiment: Algal growth inhibition test, ISO 8692; details: for Test Score / EC10 (growth inhibition): 72 h exposure; for EC50 / inhibition at 3.125 µg/mL: Raphidocelis subcapitata; for EC50: read-out: EC50 (growth inhibition); for inhibition at 3.125 µg/mL: read-out: growth inhibition
Experimental: The algal growth inhibition test (72 h) with R. subcapitata was carried out according to ISO 8692 [58]. The algal density was determined by spectrophotometric analysis (DR5000, Hach Lange GbH, Weinheim, Germany) at 670 nm. The concentrations tested correspond to 0.19, 0.39, 0.78, 1.56, and 3.12 mg L^−^1 and a negative control of 0 mg L^−^1. The growth inhibition was calculated as the difference in growth at the end of the test of the sample and the control group. Toxicity tests were carried out in triplicate.
(§1) Data analysis was conducted using RStudio for Windows (Version 2024.09.1). Dose–response models were applied to estimate the effective concentrations (EC10 and EC50) for the tested endpoints using the “drc” package. For D. magna, the data were modeled with a binomial log-logistic approach, whereas data for R. subcapitata, A. fischeri and L. sativum were fitted to log-logistic models with the upper limit constrained to 100. Furthermore, to ensure assay sensitivity and validity, a positive control exposed to potassium dichromate for the aquatic species and copper chloride for C. elegans was tested under the same experimental conditions.

[2] = Stability (photodegradation) in ISO 8692:2012 medium, quantified by HPLC; assay type: physicochemical; details: 20 °C, 254 nm light
Experimental: For the photodegradation assays, 3 mg of MAT and 3 mg of LAC were separately dissolved in 150 µL of DMSO and added to 3 mL of International Organization for Standardization (ISO) 8692:2012 medium. The solutions were exposed to 254 nm of light for up to 16 days. At specific time intervals (1, 2, 3, 6, and 16 days), 400 µL of the solutions were collected and analyzed by TLC using n-hexane/EtOAc (75:25, v/v) as the eluent, with MAT and LAC standard samples serving as references.
HPLC analysis was performed in isocratic mode and with the same ISO medium solutions, using MeCN–H2O (0.1% v/v formic acid) at a 60:40 (v/v) ratio as the mobile phase, with a flow rate of 0.5 mL/min. Detection was carried out at 220 nm with a 20 μL injection loop, monitoring the chromatogram for over 50 min to identify potential degradation products. Each sample was analyzed in triplicate. Control solutions containing only the culture medium and DMSO (without MAT or LAC) were also analyzed under identical conditions to ensure specificity.
Calibration curves for MAT and LAC were prepared by injecting standard samples at concentrations ranging from 0.022 to 2.2 mg for MAT and 0.004 to 2.2 mg for LAC. These standards were used to optimize the method and quantify the degradation products.

[3] = tested on: L. sativum; experiment: Plant germination and growth phytotoxicity test; assay type: in vivo, Lepidum sativum; details: 72 h exposure; for germination: tested concentrations up to 94 mg L^−1; for EC50: Lepidium sativum, read-out: EC50 (shoot length)
Experimental: Lepidum sativum seeds were purchased from Microbiotests (Gent, Belgium) and were used for the phytotoxicity test. Tests were conducted following the standard method. Seeds (n = 10) were placed in 10 g of soil medium and exposure was carried out in triplicates. […] Germination (%) and root elongation inhibition were combined to calculate the germination index (GI, %).

[4] = tested on: C. elegans; experiment: Nematode survival bioassay in soil, ASTM E2172-01; assay type: in vivo; details: for mortality: 24 h exposure, across tested concentrations (1.73 to 94 mg L^−1); for Test Score: N2, Bristol variant (wild type), Caenorhabditis elegans, in vivo, 24 h
Experimental: The nematode bioassay was carried out using the Caenorhabditis elegans wild-type strain N2, Bristol variant, according to the ASTM E2172—01 Standard Method (2014). Culture was maintained on NGM (nematode growth media) plates seeded with Escherichia coli (uracil-deficient OP50 strain) and stored at 20 °C. The tests were conducted using age-synchronized adult nematodes, obtained by lysing gravid nematodes with a bleaching solution (10 g/L NaOH, 10.5 g/L NaOCl), followed by centrifugation and washing with an M9 mineral medium (2.2 mM KH2PO4, 4.2 mM Na2HPO4, 85.6 mM NaCl, and 1 mM MgSO4). The synchronized nematodes were then transferred to NGM agar plates and left to recover overnight.
Soil samples (2.33 g) were hydrated to 35–45% of their dry weight using K-medium in centrifuge tubes. Ten worms were transferred to each tube and exposed to the soil samples for 24 h at 20 °C. […] Treatments were performed in triplicate, with worms kept unfed during the exposure period. Nematodes were extracted by centrifugation (2000 rpm, 2 min) using silica gel (Ludox TM 50, Sigma-Aldrich, St. Louis, MO, USA) with a specific density of 1.13 g/mL. The supernatant was then transferred to 100 mm glass Petri dishes and washed with Keller (K) medium. Extracted individuals were counted under a microscope (40× magnification), with mortality as the measured endpoint. Test validity required a minimum of 80% nematode recovery and 90% survival in the control group.

[5] = tested on: A. fischeri; experiment: Bioluminescence (light) inhibition test, ISO 11348-3; details: for EC50 / inhibition at 3.125 µg/mL: Aliivibrio fischeri, 0.5 h; for EC50: read-out: EC50 (light inhibition), 30 min exposure; for inhibition at 3.125 µg/mL: read-out: light inhibition
Experimental: The bioluminescence inhibition test (30 min) was detected with the A. fischeri (NRRLB-11177) supplied by MicroBioTest, Gent, Belgium, and according to ISO 11348-3 [59]. The bioluminescence was determined by the luminometer Microtox (Model 500 analyzer, New Castle, DE, USA) at 490 nm. To provide the required osmotic pressure for the bacterium, the stock solution was diluted to perform the test in saline water solution (2% sodium chloride, NaCl). The concentrations tested correspond to 0.19, 0.39, 0.78, 1.56, and 3.12 mg L^−^1 and a negative control of 0 mg L^−^1. Toxicity tests were performed in triplicate with a control, and the percentage luminescence inhibition was expressed as the ratio of the decrease in bacterial light production to the remaining light.
as §1

[6] = tested on: D. magna; experiment: Crustacean immobility acute test, ISO 6341; assay type: in vivo, Daphnia magna; details: for immobilization: 6.91 mg L^−1, 24 h exposure; for EC50: Daphnia magna, read-out: EC50 (immobilization); for Hazard Ranking: GHS ranking of 48 h EC50, this study
Experimental: The immobility acute test (48 h) with D. magna was conducted according to ISO 6341 [60]. D. magna was selected from laboratory stock cultures at the Hygiene Laboratory of the Department of Biology of the University of Naples Federico II, placed in ISO medium, and fed daily with the microalgae R. subcapitata. For the test, five neonates (third brood, <24 h old) were exposed in 10 mL of ISO medium to the following corresponding concentrations: 0.22, 0.43, 0.86, 1.73, 3.46, 6.91, 13.83, 27.65, and 55.30 mg L^−^1 and a negative control of 0 mg L^−^1. Each concentration had 4 replicates, and immobility was assessed after 24 and 48 h of exposure.
as §1

[7] = Hazard classification and weight score over the test battery; details: for hazard classification: classes I (no acute hazard) to V (very high acute hazard); for Weight Score [%]: overall, all tests performed
Experimental: When possible, the EC50 values derived from the tests were used for toxicity classification following the methodology in [65]. Compounds were categorized into five hazard classes, ranging from Class I (no acute hazard) to Class V (very high acute hazard). Additionally, weight scores for each test were calculated to quantify the relative level of toxicity, with scores assigned as follows: 0 (no significant toxic effect), 1 (significant toxic effect), 2 (toxic effect), and 3 (100% toxic effect). The weight score for each compound, based on the tests performed, was expressed as a percentage.

[8] = standard error in brackets, n = 3
[9] = 30 min exposure, standard error in brackets, n = 3
[10] = estimated from the model, outside of the tested concentrations

Row | SMILES | Test Score [1] | EC50 ([1]; 72 h) [µg/mL] | inhibition at 3.125 µg/mL ([1]; 72 h) [%] | Degraded Compound (%) ([2]; exposition time 1 day) | Degraded Compound (%) ([2]; exposition time 2 days) | Degraded Compound (%) ([2]; exposition time 3 days) | Degraded Compound (%) ([2]; exposition time 6 days) | EC10 (shoot length) [3] | Test Score [3] | germination [3] | EC50 [3] [µg/mL] | mortality [4] | Test Score [4] | Test Score ([5]; 30 min exposure) | EC10 (light inhibition) [5, 9] | inhibition at 3.125 µg/mL [5] [%] | immobilization [6] [%] | EC10 (immobilization) ([6]; 24 h exposure) | EC10 (immobilization) ([6]; 48 h exposure) | EC50 (immobilization) ([6]; 48 h exposure) [µg/mL] | further results
1 | CCCC#C/C=C1/C=CC(=O)O1 [LAC, (4Z)-lachnophyllum lactone] | 1 | 9.88 (≈ 60.9 µM) | 36 | 8.5% | 19.23 | 26.58 | 28.24 | 70.87 mg L^−1 and 70.87 (195.32) mg L^−1 | 3 | no effects; also recorded: unaffected | 85.9 (≈ 530 µM) | no mortality | 0 | 1 | 0.524 mg L^−1 and 0.524 (0.212) mg L^−1 | < 40 | 100 | 1.67 (0.313) mg L^−1 | 1.499 mg L^−1 and 1.49 (1.063) mg L^−1 | 1.728 (≈ 10.7 µM) | EC10 (growth inhibition) [1, 8]: 0.304 mg L^−1 and 0.304 (0.125) mg L^−1; EC50 (light inhibition) ([5]; 30 min exposure, estimated from the model, outside of the tested concentrations): 8.078 µg/mL (≈ 49.8 µM); EC50 [5, 10]: 8.07 µg/mL (≈ 49.8 µM); Test Score ([6]; 48 h exposure): 3; EC50 ([6]; 24 h, 24 h exposure): 2.44 µg/mL (≈ 15 µM); EC50 ([6]; 48 h, 48 h exposure): 1.72 µg/mL (≈ 10.6 µM); Hazard Ranking [6]: *** (toxic (<1 mg L^−1 ≤ 10 mg L^−1)); hazard classification [7]: Class II; Weight Score [%] [7]: 53.33%
2 | C/C=C\C#C/C=C1/C=CC(=O)O1 [MAT, (4Z,8Z)-matricaria lactone] | 0 | 4.52 (≈ 28.2 µM) | -2.4 | 90% and 89.74% | 90.06 | 90.38 | 94.55 | 38.48 mg L^−1 and 38.48 (23.979) mg L^−1 | 2 | no effects; also recorded: unaffected | 82.3 (≈ 514 µM) | no mortality | 0 | 2 | 0.063 mg L^−1 and 0.063 (0.013) mg L^−1 | ~80 | 100 | 3.11 (1.894) mg L^−1 | 1.215 mg L^−1 and 1.21 (0.294) mg L^−1 | 2.239 (≈ 14 µM) | growth inhibition (average) ([1]; 72 h, concentrations 0.19 to 1.56 mg L^−1, negative = stimulation): approximately −10%; EC10 (growth inhibition) [1, 10]: 3.417 mg L^−1 and 3.417 (0.620) * mg L^−1; EC50 [5, 8]: 0.642 µg/mL (≈ 4.01 µM); Test Score ([6]; 48 h exposure): 3; EC50 ([6]; 24 h, 24 h exposure): 3.56 µg/mL (≈ 22.2 µM); EC50 ([6]; 48 h, 48 h exposure): 2.23 µg/mL (≈ 13.9 µM); Hazard Ranking [6]: *** (toxic (<1 mg L^−1 ≤ 10 mg L^−1)); hazard classification [7]: Class II; Weight Score [%] [7]: 46.66%
